Results reported in the NIST ThermoML archive (doi:10.1016/j.fluid.2013.06.021).

Assay: xn = mol fraction of the nth substance listed
Conditions: 101 kPa, Liquid; for speed of sound: Sing-around technique in a fixed-path interferometer; for mass density: Vibrating tube method; for viscosity: Capillary tube (Ostwald / Ubbelohde) method

CCCCOCCO [2-butoxyethan-1-ol] + CCCCO
Conditions	mass density, 303.15 K [kg/m3]	mass density, 308.15 K [kg/m3]	mass density, 313.15 K [kg/m3]	speed of sound, 303.15 K [m/s]	speed of sound, 308.15 K [m/s]	speed of sound, 313.15 K [m/s]	viscosity, 308.15 K [mPa·s]
x1 = 0.0516	808.67	804.78	800.853	–	1211.8	1195.2	2.029
x1 = 0.1011	814.69	810.77	806.824	–	1216.3	1199.7	2.008
x1 = 0.1535	820.82	816.87	812.87	–	1220.7	1204.1	1.994
x1 = 0.2027	826.35	822.39	818.34	–	1224.7	1208.2	1.98
x1 = 0.2537	831.87	827.9	823.81	–	1228.7	1212.2	1.966
x1 = 0.3027	836.98	832.98	828.88	–	1232.3	1215.9	–
x1 = 0.3028	–	–	–	–	–	–	1.965
x1 = 0.4	846.49	842.45	838.34	–	1239.1	1222.7	1.968
x1 = 0.5055	855.99	851.91	847.79	1262.6	1245.9	1229.5	1.981
x1 = 0.6054	864.3	860.19	856.04	1268.6	1251.9	1235.4	2.006
x1 = 0.7025	871.83	867.68	863.5	1274	1257.4	1240.7	2.045
x1 = 0.8042	879.17	875.01	870.78	1279.4	1262.8	1246	2.106
x1 = 0.8552	882.67	878.5	874.26	1282	1265.3	1248.5	2.138
x1 = 0.906	886.07	881.88	877.63	1284.5	1267.8	1251	2.175
x1 = 0.9526	889.1	884.89	880.64	1286.7	1270	1253.2	2.204
